According to ChEMBL document CHEMBL3638901, “Thienopyrazole derivative having PDE7 inhibitory activity” (2014):

Target: High affinity 3',5'-cyclic-AMP phosphodiesterase 7A (Homo sapiens, UniProt Q13946)
Experiment: Inhibition Assay: The PDE 7 (phosphodiesterase VII) inhibiting effect of the compounds of the present invention was performed by the following method, which was modified assay method described in Biochemical. Pharmacol. 48(6), 1219-1223 (1994). (1) The active fraction of PDE 7 (phosphodiesterase VII) was obtained. That is, MOLT-4 (obtainable from ATCC as ATCC No. CRL-1582), which was cell line of human acute lymphoblastic […] T cells, was incubated in RPMI1640 culture medium containing 10% fetal bovine serum to obtain 5x10^8 MOLT-4 cells. The cells were collected by centrifugation and suspended with 10 mL of buffer solution A [25 mM of tris-HCl, 5 mM of 2-mercaptoethnol, 2 mM of benzamidine, 2 mM of EDTA, 0.1 mM of 4-(2-aminoethyl)benzensulfonyl hydrochloride; pH 7.5], then homogenized by Polytron homogenizer. The homogenate were centrifuged under 25,000xG for 10 minutes at 4 C. The supernatant was separated and thus obtained supernatant was further centrifuged under 100,000xG for 60 minutes.

Chain of High affinity 3',5'-cyclic-AMP phosphodiesterase 7A (Q13946 whole entry): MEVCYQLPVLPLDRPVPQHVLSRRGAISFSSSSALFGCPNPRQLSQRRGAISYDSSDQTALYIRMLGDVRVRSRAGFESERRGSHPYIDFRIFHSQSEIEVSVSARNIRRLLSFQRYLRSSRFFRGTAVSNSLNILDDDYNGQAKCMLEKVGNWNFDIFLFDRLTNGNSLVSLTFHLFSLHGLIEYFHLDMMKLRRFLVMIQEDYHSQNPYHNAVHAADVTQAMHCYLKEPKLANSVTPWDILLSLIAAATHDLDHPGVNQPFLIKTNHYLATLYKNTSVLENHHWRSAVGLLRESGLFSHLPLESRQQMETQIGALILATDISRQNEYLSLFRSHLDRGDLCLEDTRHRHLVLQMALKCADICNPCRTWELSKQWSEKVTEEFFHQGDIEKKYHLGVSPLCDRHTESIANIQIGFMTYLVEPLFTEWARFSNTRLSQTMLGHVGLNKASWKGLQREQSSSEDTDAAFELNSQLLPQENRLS

SMILES	IC50
Cc1nn(C2CCCCC2)c2sc(C(=O)Nc3ccc(N4CCN(C)CC4)c(Cl)c3)cc12	0.055 µM
COc1cc(NC(=O)c2cc3c(C)nn(C4CCCCC4)c3s2)ccc1C(=O)N1CCC(O)CC1	0.065 µM
COc1cc(NC(=O)c2cc3c(C)nn(C4CCCCC4)c3s2)ccc1C(=O)N1CCN(C)CC1	0.085 µM

Now those with a lower IC50, led by results:

IC50	SMILES
0.034 µM	Cc1nn(C2CCCCC2)c2sc(C(=O)Nc3ccc(N4CCOCC4)cc3)cc12
0.024 µM	Cc1nn(C2CCOCC2)c2sc(C(=O)N[C@H]3CC[C@H](N4CCOCC4)CC3)cc12
0.013 µM	Cc1nn(C2CCCCC2)c2sc(C(=O)NC3CC[C@@H](C(=O)N(C)C)C3)cc12 (stereo partly specified)
